Data from patent US10315990B2, “Isothiocyanate compounds and isothiocyanate XPO1 protein inhibitor drugs thereof” (DRIVINGFORCE THERAPEUTICS Co., Ltd., priority 2015, dated 2019).

Key:
SW620 = experiment: Inhibitory activity for high metastasis type colon cancer cell line (MTT or CCK-8); format: cell-based; details: Homo sapiens, SW-620; SW620, 72 hours; read-out: IC50
HCT116 = experiment: as above; format: cell-based; details: Homo sapiens, HCT-116; HCT116, 72 hours; read-out: IC50
IL-6 = experiment: Serum IL-6 level of IBD animal model (ELISA); format: in vivo, SD rats; details: 80 mg/kg, three days after making the TNBS model
Excerpt: (§1) Inflammatory bowel disease is an autoimmune disease. […] The therapeutic effect of the representative compound for the immune system disease or inflammation can be assessed by detecting change in levels of some important cytokines such as TNF-α and IL-6 at downstream of the signal path.

HMLE-Snail cell line = experiment: Formation of HMLE-Snail cell line spheroids; format: cell-based; details: 10 μg/ml, treated for 24 hours; control = 100; read-out: Colony (%): cell colony number of drug-treated group/cell colony number of control group × 100%
786-O = experiment: Inhibitory activity for other high metastasis type cancer cell line (MTT or CCK-8); format: cell-based; details: Homo sapiens, 786-0; 786-O, 72 hours; read-out: IC50
TNF-α = experiment: Serum TNF-α level of IBD animal model (ELISA); format: in vivo, SD rats; details: 80 mg/kg, three days after making the TNBS model
Excerpt: as §1

## C[S+]([O-])CCCCN=C=S (stereo not shown) [SFN, sulforaphane, reference compound]
SW620
  IC50: 15.1 µM
HCT116
  IC50: 13.2 µM
IL-6; Animal-1
  Serum IL-6 level, Animal-1: 2.5 ng/mL
IL-6; Animal-2
  Serum IL-6 level, Animal-2: 2.4 ng/mL
IL-6; Animal-3
  Serum IL-6 level, Animal-3: 2.3 ng/mL
HMLE-Snail cell line
  activity at 10 µg/mL: 90%
786-O
  IC50: 10.2 µM
TNF-α; Animal-1
  Serum TNF-α level, Animal-1: 2.1 ng/mL
TNF-α; Animal-2
  Serum TNF-α level, Animal-2: 1.8 ng/mL
TNF-α; Animal-3
  Serum TNF-α level, Animal-3: 2.1 ng/mL
